# From patent US20130184272A1, “DIABETES THERAPEUTIC AGENT” (TAKEDA PHARMACEUTICAL COMPANY LIMITED, priority 2010, published 2013)
# Several values for one entry are separate records, joined by “and”; a condition that tells them apart may be missing. Equal values may be shown once.
# Key:
# Type in all cases: cell-based, Mouse
# C2C12 cells = assay: Action on muscle cell differentiation suppressed by TNF-α (creatine kinase activity); conditions: for creatine kinase activity (mIU/μg): TNF-a 30 ng/mL, 3 days
# Protocol: • (1) In the same manner as in Example 1, C2C12 cells were cultured in a growth medium to not less than 90% confluence. • (2) The medium was exchanged with a differentiation medium, the compound of Reference Example 1 together with TNF-α were added, and the cells were cultured for 3 days. • (3) The cells were washed with PBS, 0.5% NP-40 solution was added, and the cells were lysed by freeze-thawing. The cell extract was centrifuged and the creatine kinase activity in the supernatant was measured as an index of muscle differentiation. The creatine kinase activity was measured using CPKII Test Wako (Wako Pure Chemical Industries, Ltd.) according to the manual of the kit.
# The data in Table 9 show mean±standard deviation at n=3 (n is the number of samples).
# creatine kinase (CKM) = assay: Muscle-related gene expression in myoblast: creatine kinase (CKM); conditions: for CKM/36B4 expression level: 10 μM, 1 day, relative value
# MyoD = assay: Muscle-related gene expression in myoblast: MyoD; conditions: for MyoD/36B4 expression level: 10 μM, 1 day, relative value
# [1] = system: phosphorylated acetyl-CoA carboxylase (ACC); assay: Phosphorylated acetyl-CoA carboxylase (ACC) amount in muscle cell; conditions: for Phospho-ACC amount (%): 3 days, amended with total ACC, no compound = 100%
# Protocol: • (1) In the same manner as in Example 1, C2C12 cells were cultured in a growth medium. After reaching subconfluence of not less than 90%, the medium was exchanged with a differentiation medium and the cells were cultured for about 4 days while exchanging the medium every 2 or 3 days until the cells differentiated to form a myotube. • (2) After confirmation of myotube formation under a microscope, the test compound (0.1-10 nM) was added to a differentiation medium and cultured for 3 days. Thereafter, the cells were fixed with 4% formaldehyde phosphate buffer for 10 min, and washed 4 times with PBS containing 0.1% TritonX-100. • (3) Odyssey Blocking Buffer (LI-COR Biosciences) was added, and the mixture was incubated at room temperature for 1 hr. Thereafter, primary antibody (ACCα (T-18) (Santacruz) and Phospho-ACC (Ser79) (Upstate)) were added, and the mixture was incubated at 4° C. overnight. • (4) The cells were washed 4 times with PBS containing 0.1% Tween20, secondary antibody (Donkey anti-goat IRDye 800CW (LI-COR Biosciences) and Donkey anti-mouse IRDye 680 (LI-COR Biosciences)) were added and the mixture was incubated under shading at room temperature for 1 hr. • (5) The cells were washed 4 times with PBS containing 0.1% Tween20, PBS was added, and the phospho-ACC amount and total ACC amount were measured using Odyssey2.1 (LI-COR Biosciences).
# The numerical values in Table 20 were obtained by amending the phospho-ACC amount with total ACC amount and are shown based on the absence of addition of the compound as 100%. n is the number of samples.
# EGLN3 = assay: Muscle-related gene expression in myoblast: EGLN3; conditions: for EGLN3/36B4 expression level: 10 μM, 1 day, relative value
# Protocol: • (1) In the same manner as in Example 1, C2C12 cell was cultured, and the compound of Reference Example 1 (10 nM) was added. A DMSO solution was added to the control group instead of the test compound. • (2) One day after the addition of the test compound or DMSO solution, total RNA was extracted using Rneasy 96 kit (Qiagen) and according to the manual of the kit, and cDNA was prepared using TaqMan reverse transcription reagent (Applied Biosystems). • (3) The expression level of MyoD (Mm00440387_m1, TaqMan Gene Expression Assays, Applied Biosystems), myogenin (Mm00446194_m1, TaqMan Gene Expression Assays, Applied Biosystems), creatine kinase (CKM) (Mm00432556_m1, TaqMan Gene Expression Assays, Applied Biosystems), EGLN3 (Mm00472200_m1, TaqMan Gene Expression Assays, Applied Biosystems) was measured by quantify PCR using ABI PRISM 7900 (Applied Biosystems). The expression level of each gene, shown in Table 3, Table 4, Table 5 and Table 6, was obtained by amendment against the expression level of 36B4 (Takeda Pharmaceutical Company Limited), and is shown in a relative value to the value of the control group cultured in a growth medium as 1.
# The data of Table 3, Table 4, Table 5 and Table 6 show mean±standard deviation at n=6 (n is the number of samples).
# The following depicts the sequences of genes used for the amendment. • 36B4-F: 5′-TGCCACACTCCATCATCAATG-3′ (SEQ ID NO: 1) • 36B4-R: 5′-CGCAAATGCAGATGGATCAG-3′ (SEQ ID NO: 2) • 5′-VIC-ACCTTCCCACTTACTGAAAAGGTCAAGGCC-TAMRA-3′ (SEQ ID NO: 3)
# [2] = C2C12 cells cultured in a differentiation medium
compound,measurement,setting,value
"Cc1ncccc1Oc1sc(C(N)=O)c2c1-c1c(cnn1C)CC2 [Ref. Ex. 1, 1-methyl-8-[(2-methylpyridin-3-yl)oxy]-4,5-dihydro-1H-thieno[3,4-g]indazole-6-carboxamide]",creatine kinase activity decreased by TNF-α (in words),C2C12 cells,recovered
same,creatine kinase activity (mIU/μg),C2C12 cells; compound 0 nM as printed,0.12 mIU/μg and 0.15 mIU/μg
same,creatine kinase activity (mIU/μg),C2C12 cells; compound 1 nM,0.25 mIU/μg
same,creatine kinase activity (mIU/μg),C2C12 cells; compound 3 nM,0.39 mIU/μg
same,expression of creatine kinase (in words),creatine kinase (CKM); [2],promoted
same,CKM/36B4 expression level,creatine kinase (CKM); DM (differentiation medium),4.84 ± 1.08
same,CKM/36B4 expression level,creatine kinase (CKM); GM (growth medium),0.03 ± 0.01
same,expression of MyoD (in words),MyoD; [2],increased
same,MyoD/36B4 expression level,MyoD; DM (differentiation medium),1.59 ± 0.20
same,MyoD/36B4 expression level,MyoD; GM (growth medium),1.26 ± 0.10
same,Phospho-ACC amount (%),[1]; compound 0.1 nM,112%
same,Phospho-ACC amount (%),[1]; compound 0.3 nM,125%
same,Phospho-ACC amount (%),[1]; compound 1 nM,136%
same,Phospho-ACC amount (%),[1]; compound 3 nM,167%
same,Phospho-ACC amount (%),[1]; compound 10 nM,163%
same,phospho-ACC amount (in words),[1]; differentiated C2C12 muscle cell,increased
same,expression of EGLN3 (in words),EGLN3; [2],increased
same,EGLN3/36B4 expression level,EGLN3; DM (differentiation medium),2.07 ± 1.15
same,EGLN3/36B4 expression level,EGLN3; GM (growth medium),2.12 ± 0.15
